{"source": "patent US10544095B2", "about": "(Pfizer Inc., priority 2015, dated 2020)", "molecular_target": "hTDO2 in human glioblastoma A172 cells (Homo sapiens (Human), UniProt P48775)", "sequence (P48775 whole entry)": "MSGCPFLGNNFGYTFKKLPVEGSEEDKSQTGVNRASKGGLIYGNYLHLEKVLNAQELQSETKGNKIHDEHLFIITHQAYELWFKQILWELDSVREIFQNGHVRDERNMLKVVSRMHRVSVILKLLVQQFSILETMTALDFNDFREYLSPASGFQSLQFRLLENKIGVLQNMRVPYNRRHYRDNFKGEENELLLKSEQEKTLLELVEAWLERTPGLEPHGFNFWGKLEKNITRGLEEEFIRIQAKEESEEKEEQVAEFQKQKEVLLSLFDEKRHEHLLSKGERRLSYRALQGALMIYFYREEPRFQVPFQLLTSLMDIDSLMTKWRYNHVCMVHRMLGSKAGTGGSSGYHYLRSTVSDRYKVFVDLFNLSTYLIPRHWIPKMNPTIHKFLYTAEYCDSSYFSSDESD", "assay": "Cellular assay for TDO2 activity determination in A172 cells", "type": "cell-based", "conditions": "overnight incubation, kynurenine absorbance at 480 nm", "protocol": "The compounds of formula I inhibit the activity of human TDO2 in cells that constitutively express TDO2, such as A172 cells. A172 is a cell line derived from human brain glioblastoma cells. The cells are available from the American Type Culture Collection (ATCC®) as CRL-1620™.\nThe assay (adapted from Pilotte L et al., Proc Natl Acad Sci USA, 2012, 109(7), 2497-502) was performed in 96-well flat bottom plates seeded with human glioblastoma A172 cells, naturally expressing hTDO2 (prepared as described in Tilman et al., Mol Cancer, 2007, 17(6), 80), at a concentration of 1.25×10^4 cells/well in a final volume of 200 μL. To determine TDO, the cells were incubated overnight at 37° C. at 5% CO2 in IMDM (Invitrogen) supplemented with 2% FBS and 2% penicillin/streptomycin in the presence of the compounds of the present invention, at different concentrations.\nThe plates were then centrifuged 5 min at 1000 rpm, and 100 μL of the supernatant were collected in a conical plate, 30 μL of TCA 30% were added and a further centrifuged at 3000×g for 10 minutes. 100 μL of the supernatant were collected in a flat bottomed plate and 100 μL of 2% (w/v) 4-(dimethylamino)-benzaldehyde in acetic acid and incubated for 5 min at room temperature. Kynurenine concentrations were determined by measuring the absorbance at 480 nm. A standard curve was made with pure kynurenine. The TDO activity was measured as described above using ten serial concentrations of the compounds of the present invention. Data were fitted using the Prism™ software (GraphPad Software, Inc.) using standard parameters.", "note": "pIC50: −log10 of the molar value.", "data": [{"smiles": "O=S(=O)(NCCc1ncc[nH]1)c1ccc(-c2c[nH]c3cc(F)ccc23)cc1", "note": "[Example 73, N-(2-(1H-imidazol-2-yl)ethyl)-4-(6-fluoro-1H-indol-3-yl)benzenesulfonamide]", "values": [{"measurement": "pIC50", "value": 6.82}]}, {"smiles": "O=S(=O)(c1ccc(-c2c[nH]c3cc(F)ccc23)cc1)N1C[C@@H](O)[C@H](O)C1", "note": "[Example 74, (3R,4R)-1-((4-(6-fluoro-1H-indol-3-yl)phenyl)-sulfonyl)pyrrolidine-3,4-diol]", "values": [{"measurement": "pIC50", "value": 7.02}]}, {"smiles": "O=S(=O)(c1c(F)cc(-c2c[nH]c3cc(F)ccc23)cc1F)N1CCNCC1", "note": "[Example 75, 3-(3,5-difluoro-4-(piperazin-1-ylsulfonyl)phenyl)-6-fluoro-1H-indole]", "values": [{"measurement": "pIC50", "value": 6.42}]}, {"smiles": "NC(=O)n1cc(-c2ccc(S(=O)(=O)N3CCNCC3)cc2)c2ccc(F)cc21", "note": "[Example 78, 6-fluoro-3-(4-(piperazin-1-ylsulfonyl)phenyl)-1H-indole-1-carboxamide]", "values": [{"measurement": "pIC50", "value": 4.74}]}, {"smiles": "N[C@@H]1CN(S(=O)(=O)c2ccc(-c3c[nH]c4cc(F)ccc34)cc2)C[C@H]1F", "note": "[Example 82, (3R,4R)-4-fluoro-1-{[4-(6-fluoro-1H-indol-3-yl)phenyl]sulfonyl}pyrrolidin-3-amine]", "values": [{"measurement": "pIC50", "value": 6.60}]}, {"smiles": "N[C@@H]1CN(S(=O)(=O)c2ccc(-c3c[nH]c4cc(F)ccc34)cc2)C[C@@H]1F", "note": "[Example 83, (−)-(cis)-4-fluoro-1-((4-(6-fluoro-1H-indol-3-yl)-phenyl)sulfonyl)-pyrrolidin-3-amine]", "values": [{"measurement": "pIC50", "value": 6.96}]}, {"smiles": "CC(NS(=O)(=O)c1ccc(-c2c[nH]c3cc(F)ccc23)cc1)c1nncn1C", "note": "(centres unmarked) [Example 85, 4-(6-fluoro-1H-indol-3-yl)-N-[1-(4-methyl-4H-1,2,4-triazol-3-yl)ethyl]benzenesulfonamide]", "values": [{"measurement": "pIC50", "value": 6.41}]}, {"smiles": "Cc1nnc(CNS(=O)(=O)c2ccc(-c3c[nH]c4cc(F)ccc34)cc2)o1", "note": "[Example 89, 4-(6-fluoro-1H-indol-3-yl)-N-((5-methyl-1,3,4-oxadiazol-2-yl)methyl) benzenesulfonamide]", "values": [{"measurement": "pIC50", "value": 6.70}]}, {"smiles": "Cn1nccc1NS(=O)(=O)c1ccc(-c2c[nH]c3cc(F)ccc23)cc1", "note": "[Example 91, 4-(6-fluoro-1H-indol-3-yl)-N-(1-methyl-1H-pyrazol-5-yl)benzenesulfonamide]", "values": [{"measurement": "pIC50", "value": 5.74}]}, {"smiles": "Cn1cnnc1CNS(=O)(=O)c1ccc(-c2c[nH]c3cc(F)ccc23)cc1", "note": "[Example 92, 4-(6-fluoro-1H-indol-3-yl)-N-[(4-methyl-4H-1,2,4-triazol-3-yl)methyl]-benzenesulfonamide]", "values": [{"measurement": "pIC50", "value": 6.25}]}, {"smiles": "CNS(=O)(=O)CCN(C)S(=O)(=O)c1ccc(-c2c[nH]c3cc(F)ccc23)cc1", "note": "[Example 100, 4-(6-fluoro-1H-indol-3-yl)-N-methyl-N-[2-(methylsulfamoyl)ethyl]benzenesulfonamide]", "values": [{"measurement": "pIC50", "value": 7.00}]}, {"smiles": "C[C@@H](CO)NS(=O)(=O)c1ccc(-c2c[nH]c3cc(F)ccc23)cc1", "note": "[Example 101, (−)-(6-fluoro-1H-indol-3-yl)-N-[(2S)-1-hydroxypropan-2-yl]benzenesulfonamide]", "values": [{"measurement": "pIC50", "value": 7.03}]}, {"smiles": "O=C(CCNS(=O)(=O)c1ccc(-c2c[nH]c3cc(F)ccc23)cc1)N1CCNCC1", "note": "[Example 102, 4-(6-fluoro-1H-indol-3-yl)-N-(3-oxo-3-(piperazin-1-yl)propyl) benzenesulfonamide]", "values": [{"measurement": "pIC50", "value": 6.59}]}, {"smiles": "CN1CCN(C(=O)CCNS(=O)(=O)c2ccc(-c3c[nH]c4cc(F)ccc34)cc2)CC1", "note": "[Example 103, 4-(6-fluoro-1H-indol-3-yl)-N-(3-(4-methylpiperazin-1-yl)-3-oxopropyl) benzenesulfonamide]", "values": [{"measurement": "pIC50", "value": 6.59}]}, {"smiles": "O=C(CCNS(=O)(=O)c1ccc(-c2c[nH]c3cc(F)ccc23)cc1)N[C@H]1CCOC1", "note": "[Example 104, (−)-(S)-3-(4-(6-fluoro-1H-indol-3-yl)phenylsulfonamido)-N-(tetrahydrofuran-3-yl)propanamide]", "values": [{"measurement": "pIC50", "value": 6.62}]}, {"smiles": "N[C@H]1CN(C(=O)CCNS(=O)(=O)c2ccc(-c3c[nH]c4cc(F)ccc34)cc2)C[C@@H]1F", "note": "[Example 105, (−)-N-(3-((3S,4S)-3-amino-4-fluoropyrrolidin-1-yl)-3-oxopropyl)-4-(6-fluoro-1H-indol-3-yl)benzenesulfonamide]", "values": [{"measurement": "pIC50", "value": 6.66}]}, {"smiles": "O=C(CCNS(=O)(=O)c1ccc(-c2c[nH]c3cc(F)ccc23)cc1)N1CCOCC1", "note": "[Example 106, 4-(6-fluoro-1H-indol-3-yl)-N-(3-morpholino-3-oxopropyl)-benzenesulfonamide]", "values": [{"measurement": "pIC50", "value": 6.57}]}, {"smiles": "O=C(CCNS(=O)(=O)c1ccc(-c2c[nH]c3cc(F)ccc23)cc1)N[C@@H]1CCOC1", "note": "[Example 107, (+)-(R)-3-(4-(6-fluoro-1H-indol-3-yl)phenylsulfonamido)-N-(tetrahydrofuran-3-yl)propanamide]", "values": [{"measurement": "pIC50", "value": 6.80}]}, {"smiles": "O=C(NCCNS(=O)(=O)c1ccc(-c2c[nH]c3cc(F)ccc23)cc1)N1CCOCC1", "note": "[Example 108, N-(2-(4-(6-fluoro-1H-indol-3-yl)phenylsulfonamido)ethyl)-morpholine 4-carboxamide]", "values": [{"measurement": "pIC50", "value": 6.77}]}, {"smiles": "O=C(NCCNS(=O)(=O)c1ccc(-c2c[nH]c3cc(F)ccc23)cc1)N1CCNCC1", "note": "[Example 109, N-(2-(4-(6-fluoro-1H-indol-3-yl)phenylsulfonamido)ethyl) piperazine-1-carboxamide]", "values": [{"measurement": "pIC50", "value": 6.00}]}, {"smiles": "CN1CCN(C(=O)NCCNS(=O)(=O)c2ccc(-c3c[nH]c4cc(F)ccc34)cc2)CC1", "note": "[Example 110, N-(2-(4-(6-fluoro-1H-indol-3-yl)phenylsulfonamido)ethyl)-4-methylpiperazine-1-carboxamide]", "values": [{"measurement": "pIC50", "value": 6.74}]}, {"smiles": "C[C@@H](O)[C@H](C)N(CCO)S(=O)(=O)c1ccc(-c2c[nH]c3cc(F)ccc23)cc1", "note": "[Example 111, 4-(6-fluoro-1H-indol-3-yl)-N-((2S,3R)-3-hydroxybutan-2-yl)-N-(2-hydroxyethyl)benzene sulfonamide]", "values": [{"measurement": "pIC50", "value": 6.84}]}, {"smiles": "O=S(=O)(c1ccc(-c2c[nH]c3cc(F)ccc23)cc1)N1CCOC[C@@H]1CO", "note": "[Example 112, (S)-(4-((4-(6-fluoro-1H-indol-3-yl)phenyl)sulfonyl)morpholin-3-yl)methanol]", "values": [{"measurement": "pIC50", "value": 6.94}]}, {"smiles": "Cn1nccc1C1(O)CCN(S(=O)(=O)c2ccc(-c3c[nH]c4cc(F)ccc34)cc2)C1", "note": "(centres unmarked) [Example 113, 1-((4-(6-fluoro-1H-indol-3-yl)phenyl)sulfonyl)-3-(1-methyl-1H-pyrazol-5-yl)pyrrolidin-3-ol]", "values": [{"measurement": "pIC50", "value": 4.04}]}, {"smiles": "Cn1cc(CN(CCO)S(=O)(=O)c2ccc(-c3c[nH]c4cc(F)ccc34)cc2)cn1", "note": "[Example 114, 4-(6-fluoro-1H-indol-3-yl)-N-(2-hydroxyethyl)-N-((1-methyl-1H-pyrazol-4-yl)methyl) benzenesulfonamide]", "values": [{"measurement": "pIC50", "value": 4.04}]}, {"smiles": "O=S(=O)(c1ccc(-c2c[nH]c3cc(F)ccc23)cc1)N1CCOC[C@H]1CO", "note": "[Example 115, (R)-(4-((4-(6-fluoro-1H-indol-3-yl)phenyl)sulfonyl)morpholin-3-yl)methanol]", "values": [{"measurement": "pIC50", "value": 6.88}]}, {"smiles": "C[C@]1(O)CCN(S(=O)(=O)c2ccc(-c3c[nH]c4cc(F)ccc34)cc2)C1", "note": "[Example 116, (S)-1-((4-(6-fluoro-1H-indol-3-yl)phenyl)sulfonyl)-3-methylpyrrolidin-3-ol]", "values": [{"measurement": "pIC50", "value": 4.04}]}, {"smiles": "O=S(=O)(c1ccc(-c2c[nH]c3cc(F)ccc23)cc1)N(CCO)CCCO", "note": "[Example 117, 4-(6-fluoro-1H-indol-3-yl)-N-(2-hydroxyethyl)-N-(3-hydroxypropyl)benzenesulfonamide]", "values": [{"measurement": "pIC50", "value": 6.96}]}, {"smiles": "O=S(=O)(c1ccc(-c2c[nH]c3cc(F)ccc23)cc1)N1CCOCC(O)C1", "note": "(centres unmarked) [Example 118, 4-((4-(6-fluoro-1H-indol-3-yl)phenyl)sulfonyl)-1,4-oxazepan-6-ol]", "values": [{"measurement": "pIC50", "value": 7.05}]}, {"smiles": "O=S(=O)(c1ccc(-c2c[nH]c3cc(F)ccc23)cc1)N1CCC(O)(c2ccncn2)C1", "note": "(centres unmarked) [Example 119, 1-((4-(6-fluoro-1H-indol-3-yl)phenyl)sulfonyl)-3-(pyrimidin-4-yl)pyrrolidin-3-ol]", "values": [{"measurement": "pIC50", "value": 6.91}]}, {"smiles": "CN(CC(O)c1cccnn1)S(=O)(=O)c1ccc(-c2c[nH]c3cc(F)ccc23)cc1", "note": "(centres unmarked) [Example 121, 4-(6-fluoro-1H-indol-3-yl)-N-(2-hydroxy-2-(pyridazin-3-yl)ethyl)-N-methylbenzene-sulfonamide]", "values": [{"measurement": "pIC50", "value": 6.81}]}, {"smiles": "Cc1nccn1CC1(O)CCCN(S(=O)(=O)c2ccc(-c3c[nH]c4cc(F)ccc34)cc2)C1", "note": "(centres unmarked) [Example 122, 1-((4-(6-fluoro-1H-indol-3-yl)phenyl)sulfonyl)-3-((2-methyl-1H-imidazol-1-yl)methyl) piperidin-3-ol]", "values": [{"measurement": "pIC50", "value": 4.07}]}, {"smiles": "O=S(=O)(c1ccc(-c2c[nH]c3cc(F)ccc23)cc1)N1C[C@@H](F)C[C@H]1CO", "note": "[Example 123, ((2S,4S)-4-fluoro-1-((4-(6-fluoro-1H-indol-3-yl)phenyl)sulfonyl)pyrrolidin-2-yl)methanol]", "values": [{"measurement": "pIC50", "value": 6.86}]}, {"smiles": "O=S(=O)(c1ccc(-c2c[nH]c3cc(F)ccc23)cc1)N1CCC(O)C1", "note": "(centres unmarked) [Example 124, 1-((4-(6-fluoro-1H-indol-3-yl)phenyl)sulfonyl) pyrrolidin-3-ol]", "values": [{"measurement": "pIC50", "value": 4.03}]}, {"smiles": "O=S(=O)(c1ccc(-c2c[nH]c3cc(F)ccc23)cc1)N1C[C@H](F)C[C@@H]1CO", "note": "[Example 125, ((2R,4R)-4-fluoro-1-((4-(6-fluoro-1H-indol-3-yl)phenyl)sulfonyl)pyrrolidin-2-yl)methanol]", "values": [{"measurement": "pIC50", "value": 7.01}]}]}
